Structures can show the parent of a compound that is named as a salt. Where two headings read alike, the source gives them in different places.
How the values were obtained:
Assay type in all cases: cell-based, human
HTT mRNA = experiment: RT-qPCR splicing assay, HTT mRNA canonical (CJ) and alternative (AJ) junction; conditions: Homo sapiens
In short: (§1)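 Canonical and alternative-exon junction isoforms were quantified by RT-qPCR in cell lysates, with ΔCt against a housekeeper (GAPDH/GUSB/PPIA), then ΔΔCt vs DMSO, converted to 2^(−ΔΔCt) and percent response. K562 or A673 cells were exposed for 24 h to 11 concentrations (3-fold, top final 10 uM).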

MYB mRNA = experiment: RT-qPCR splicing assay, MYB mRNA canonical (CJ) and alternative (AJ) junction; conditions: Homo sapiens
In short: as §1

SMN2 mRNA = experiment: RT-qPCR splicing assay, SMN2 mRNA; conditions: Homo sapiens, canonical junction qPCR panel, Table 4; read-out: SMN2 IC50 (decrease in CJ mRNA levels)
In short: as §1

[1] = RT-qPCR, HTT alternative junction mRNA increase, read-out: HTT AJ (increase in alternative junction mRNA, AC50)
[2] = RT-qPCR, HTT canonical junction mRNA decrease, read-out: HTT CJ (decrease in canonical junction mRNA, IC50)
[3] = canonical junction qPCR panel, Table 4, read-out: HTT IC50 (decrease in CJ mRNA levels)
[4] = RT-qPCR, MYB alternative junction mRNA increase, read-out: MYB AJ (increase in alternative junction mRNA, AC50)
[5] = RT-qPCR, MYB canonical junction mRNA decrease, read-out: MYB CJ (decrease in canonical junction mRNA, IC50)
[6] = canonical junction qPCR panel, Table 4, read-out: MYB IC50 (decrease in CJ mRNA levels)
[7] = HTT alternative junction mRNA, RT-qPCR, read-out: HTT AJ (increase in AJ mRNA, AC50)
[8] = HTT canonical junction mRNA, RT-qPCR, read-out: HTT CJ (decrease in CJ mRNA levels, IC50)
[9] = MYB alternative junction mRNA, RT-qPCR, read-out: MYB AJ (increase in AJ mRNA, AC50)
[10] = MYB canonical junction mRNA, RT-qPCR, read-out: MYB CJ (decrease in CJ mRNA levels, IC50)

Row | Structure (SMILES) | IC50 (HTT mRNA; [2]) [µM] | IC50 (HTT mRNA; [3]) [µM] | IC50 (MYB mRNA; [5]) [µM] | IC50 (MYB mRNA; [6]) [µM] | IC50 (HTT mRNA; [8]) [µM] | IC50 (SMN2 mRNA) [µM] | IC50 (MYB mRNA; [10]) [µM] | AC50 (HTT mRNA; [1]) [µM] | AC50 (MYB mRNA; [4]) [µM] | AC50 (HTT mRNA; [7]) [µM] | AC50 (MYB mRNA; [9]) [µM]
1 | Cc1nc(-c2cc3cn(C)nc3c(C)c2O)nc2ccc(N3C[C@H](C)N[C@@H](C)C3)cc12 (single isomer, unassigned) [Compound 807] | > 10 | > 10 | < 0.1 | < 0.1 |  |  |  | 1 to 10 | < 0.1 |  | 
2 | Cn1cc2cc(-c3cc4ccc(C5CCNCC5)nc4cn3)c(O)cc2n1 [Compound 104] |  | 1 to 10 |  | 1 to 10 | 1 to 10 | 0.1 to 1 | 1 to 10 |  |  | 1 to 10 | 1 to 10
3 | Cn1cc2cc(-c3ccc4nc(N5CC[C@H](NC6CCC6)C5)ccc4n3)c(O)cc2n1 [Compound 156] |  | < 0.1 |  | < 0.1 | < 0.1 | < 0.1 | < 0.1 |  |  | < 0.1 | < 0.1
4 | CC(C)N[C@H]1CCN(c2ccc3nc(-c4cc5cn(C)nc5cc4O)ccc3n2)C1 [Compound 171] |  | < 0.1 |  | < 0.1 | < 0.1 | < 0.1 | < 0.1 |  |  | < 0.1 | < 0.1
5 | Cc1cn2nc(-c3ccc4nc(N5CCC(NC(C)(C)C)C5)ccc4n3)cc(C)c2n1 (stereo not drawn) [Compound 186] |  | < 0.1 |  | 0.1 to 1 | < 0.1 | < 0.1 | 0.1 to 1 |  |  | < 0.1 | < 0.1
6 | Cn1cc2cc(-c3ccc4nc(N5CC[C@H](NCC6CC6)C5)ccc4n3)c(O)cc2n1 [Compound 194] |  | < 0.1 |  | < 0.1 | < 0.1 | < 0.1 | < 0.1 |  |  | < 0.1 | < 0.1
7 | CN(C)C1CCN(c2ccc3nc(-c4cc5cn(C)nc5c(F)c4O)ncc3c2)CC1 [Compound 757, 5-{6-[4-(dimethylamino)piperidin-1-yl]quinazolin-2-yl}-7-fluoro-2-methylindazol-6-ol] | 1 to 10 | 1 to 10 | < 0.1 | < 0.1 |  | < 0.1 |  | 1 to 10 | 0.1 to 1 |  | 
8 | Cc1cn2cc(-c3nc(C(=O)NC4CCC4)c4cc(N5C[C@@H](C)N[C@@H](C)C5)ccc4n3)cc(F)c2n1 [Compound 779, N-cyclobutyl-6-[(3R,5S)-3,5-dimethylpiperazin-1-yl]-2-{8-fluoro-2-methylimidazo[1,2-a]pyridin-6-yl}quinazoline-4-carboxamide] | 1 to 10 | 1 to 10 | < 0.1 | < 0.1 |  | < 0.1 |  | 1 to 10 | < 0.1 |  | 
9 | Cc1c(O)c(-c2nc(C(N)=O)c3cc(N4C[C@H](C)N[C@@H](C)C4)ccc3n2)cc2cn(C)nc12 [Compound 796] | 0.1 to 1 | 0.1 to 1 | < 0.1 | < 0.1 |  |  |  | 0.1 to 1 | < 0.1 |  | 
10 | C[C@H]1CN(c2ccc3nc(-c4cc5cn(C)nc5cc4O)nc(C(N)=O)c3c2)C[C@H](C)N1 [Compound 797] | 1 to 10 | 1 to 10 | < 0.1 | < 0.1 |  |  |  | 0.1 to 1 | < 0.1 |  | 
11 | Cc1c(O)c(-c2ccc3cc(N4CCNC5(CC5)C4)cc(F)c3n2)cc2cn(C)nc12 [Compound 805, 5-(6-{4,7-diazaspiro[2.5]octan-7-yl}-8-fluoroquinolin-2-yl)-2,7-dimethylindazol-6-ol] | < 0.1 | < 0.1 | < 0.1 | < 0.1 |  |  |  | 0.1 to 1 | < 0.1 |  | 

More lines, main results first:

Row | IC50 (HTT mRNA; [2]) [µM] | IC50 (HTT mRNA; [3]) [µM] | IC50 (MYB mRNA; [5]) [µM] | IC50 (MYB mRNA; [6]) [µM] | IC50 (HTT mRNA; [8]) [µM] | IC50 (SMN2 mRNA) [µM] | IC50 (MYB mRNA; [10]) [µM] | Structure (SMILES) | AC50 (HTT mRNA; [1]) [µM] | AC50 (MYB mRNA; [4]) [µM] | AC50 (HTT mRNA; [7]) [µM] | AC50 (MYB mRNA; [9]) [µM]
12 | < 0.1 | < 0.1 | < 0.1 | < 0.1 |  |  |  | C[C@H]1CN(c2cc(F)c3nc(-c4cc(F)c5nn(C)cc5c4)ccc3c2)C[C@H](C)N1 (single isomer, unassigned) [Compound 760] | 0.1 to 1 | 0.1 to 1 |  | 
13 | 0.1 to 1 | 0.1 to 1 | < 0.1 | < 0.1 |  |  |  | C[C@H]1CN(c2cc(F)c3nc(-c4cc5cn(C)nc5cc4O)ccc3c2)C[C@H](C)N1 (single isomer, unassigned) [Compound 770] | 0.1 to 1 | < 0.1 |  | 
14 | 0.1 to 1 | 0.1 to 1 | < 0.1 | < 0.1 |  |  |  | Cc1cn2nc(-c3ccc4cc(N5C[C@H](C)N[C@@H](C)C5)cc(F)c4n3)cc(C)c2n1 (single isomer, unassigned) [Compound 799] | 0.1 to 1 | 0.1 to 1 |  | 
15 | < 0.1 | < 0.1 | < 0.1 | < 0.1 |  |  |  | Cc1c(O)c(-c2ccc3cc(N4C[C@H](C)N[C@@H](C)C4)cc(F)c3n2)cc2cn(C)nc12 (single isomer, unassigned) [Compound 800, 2,2,2-trifluoroacetate] | < 0.1 | < 0.1 |  | 
16 | > 10 | > 10 | < 0.1 | < 0.1 |  |  |  | Cc1nc(-c2cc3cn(C)nc3cc2O)nc2ccc(N3C[C@H](C)N[C@@H](C)C3)cc12 (single isomer, unassigned) [Compound 806] | 1 to 10 | 0.1 to 1 |  | 
17 | 0.1 to 1 | 0.1 to 1 | 0.1 to 1 | 0.1 to 1 |  | < 0.1 |  | C[C@@H]1CN(c2cc(F)c3nc(-c4cc(F)c5nn(C)cc5c4)ccc3c2)C[C@H](C)N1 [Compound 758, 6-[(3R,5S)-3,5-dimethylpiperazin-1-yl]-8-fluoro-2-(7-fluoro-2-methylindazol-5-yl)quinoline] | 1 to 10 | 0.1 to 1 |  | 
18 | < 0.1 | < 0.1 | < 0.1 | < 0.1 |  | < 0.1 |  | C[C@@H]1CN(c2cc(F)c3nc(-c4cc5cn(C)nc5c(F)c4O)ccc3c2)C[C@H](C)N1 [Compound 763, 5-{6-[(3R,5S)-3,5-dimethylpiperazin-1-yl]-8-fluoroquinolin-2-yl}-7-fluoro-2-methylindazol-6-ol hydrochloride] | 0.1 to 1 | < 0.1 |  | 
19 | 1 to 10 | 1 to 10 | 0.1 to 1 | 0.1 to 1 |  | < 0.1 |  | C[C@@H]1CN(c2cc(F)c3nc(-c4cc5cn(C)nc5cc4O)ccc3c2)C[C@H](C)N1 [Compound 768, 5-{6-[(3R,5S)-3,5-dimethylpiperazin-1-yl]-8-fluoroquinolin-2-yl}-2-methylindazol-6-ol hydrochloride] | 1 to 10 | 0.1 to 1 |  | 
20 | 1 to 10 | 1 to 10 | < 0.1 | < 0.1 |  | < 0.1 |  | Cc1cn2cc(-c3ncc4cc(N5C[C@@H](C)N[C@@H](C)C5)ccc4n3)cc(F)c2n1 [Compound 773, 6-[(3R,5S)-3,5-dimethylpiperazin-1-yl]-2-{8-fluoro-2-methylimidazo[1,2-a]pyridin-6-yl}quinazoline] | 1 to 10 | < 0.1 |  | 
21 | 0.1 to 1 | 0.1 to 1 | < 0.1 | < 0.1 |  | < 0.1 |  | Cc1cn2cc(-c3ncc4cc(N5C[C@H](C)N[C@@H](C)C5)ccc4n3)cc(F)c2n1 [Compound 803, 6-[(3S,5S)-3,5-dimethylpiperazin-1-yl]-2-{8-fluoro-2-methylimidazo[1,2-a]pyridin-6-yl}quinazoline] | 0.1 to 1 | < 0.1 |  | 
